Reference: patent US12691070B2, “Cationic lipids and preparation method thereof” (RiboX Therapeutics HK Limited, priority 2023, dated 2026)

Assays:
[1] = test system: RAW 264.7 cells; assay: In vitro toxicity (CellTiter-Glo cell viability), RAW 264.7; format: cell-based;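 further: percent of untreated cells luminescence signal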
Procedure, shortened: (§1)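 Toxicity of RNA-LNPs (1 μg/mL) is reported as cell viability, calculated from CellTiter-Glo luminescence measured at 72 hours after transfection.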

[2] = test system: Aspartate Aminotransferase (AST); assay: Liver enzyme elevation in serum, AST; format: in vivo; conditions: cirRNA (SEQ ID NO: 1) LNPs, BALB/C mice, intravenous 0.5 MPK
Method: (§2) 6-8 week old, female BALB/C mice were injected with 0.5 mg*kg-1 of RNA LNPs by intravenous injection. At 2 and 24 hours post injection, animals were bled and sera concentrations of Alanine Aminotransferase (ALT) and Aspartate Aminotransferase (AST) were determined by a blood chemistry analyzer.

[3] = test system: Hep G2 cells; assay: In vitro expression of firefly-luciferase, Hep G2; format: cell-based
Procedure, shortened: (§3)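 Luminescence from cell lysates reports expression: luciferase activity was measured 72 h after transfection with 100 ng/mL RNA-LNPs encoding firefly luciferase.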

[4] = test system: BALB/C mice; assay: Local tolerance determination by footpad injection; format: in vivo; conditions: cirRNA (SEQ ID NO: 1) LNP, 0.175 mg*kg-1 subcutaneous into the footpad, 24 hours post minus prior
Method: 6-8 week old, female BALB/C mice were injected with 0.175 mg*kg-1 RNA LNPs by subcutaneous injection into the footpad. Prior to, and 24 hours post injections, injected footpad thickness was determined by a caliper.

[5] = test system: BALB/C mice; assay: In vivo expression, whole-body luminescence (IVIS)
Method: 6-8 week old, female BALB/C mice were injected with 0.05 mg*kg-1 of RNA-LNPs encoding for firefly-luciferase by intravenous injection. At 6 hours post injection, animals were intraperitoneally injected with 15 mg/ml of Luciferin substrate and whole-body luminescence was determined by a bioluminescent in vivo imaging system (IVIS).

[6] = LNP zeta potential (Zetasizer); format: physicochemical
Procedure, shortened: (§4)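 Dynamic light scattering and zeta potential measurements were run on PBS-dialyzed LNPs, which had been formed by microfluidic mixing at 12 ml/min with final lipid at 1.5 mM to 6 mM. RNA content and percent encapsulation were determined by Ribogreen with and without Triton X-100.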

[7] = test system: RAW 264.7 cells; assay: In vitro expression of firefly-luciferase, RAW 264.7; format: cell-based
Procedure, shortened: as §3

[8] = test system: Alanine Aminotransferase (ALT); assay: Liver enzyme elevation in serum, ALT; format: in vivo; conditions: cirRNA (SEQ ID NO: 1) LNPs, BALB/C mice, intravenous 0.5 MPK
Method: as §2

[9] = test system: Hep G2 cells; assay: In vitro toxicity (CellTiter-Glo cell viability), Hep G2; format: cell-based;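 further: percent of untreated cells luminescence signal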
Procedure, shortened: as §1

[10] = LNP size and polydispersity index (PDI) by dynamic light scattering; format: physicochemical; conditions: for Size: in nm (unit assumed)
Procedure, shortened: as §4

[11] = RNA encapsulation efficacy by Quant-IT Ribogreen kit; format: physicochemical; conditions: for Encapsulation Efficiency %: LNP with cirRNA (SEQ ID NO: 1); for Encapsulation Efficiency: LNP with mRNA (SEQ ID NO: 2)
Procedure, shortened: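 Ribogreen fluorescence with and without Triton X-100 gave encapsulation as 100% − (intact/lysed) signal; DLS size, PDI and zeta potential measured on a Zetasizer. Particles: 50:10:38.5:1.5 lipid mix, luciferase circRNA or mRNA, lipid:nucleotide 15 or 6, microfluidic assembly at pH 4.5, PBS-dialyzed.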

[12] = test system: MCP-I; assay: MCP-I cytokine elevation in serum; format: in vivo; conditions: cirRNA (SEQ ID NO: 1) LNPs, mice
Method: 6-8 week old, female BALB/C mice were injected with 0.5 mg*kg-1 of RNA LNPs by intravenous injection. At 2 and 24 hours post injection, animals were bled and sera concentrations of MCP-I were determined by an immunoassay (Luminex).

[13] = cirRNA (SEQ ID NO: 1) LNPs, RAW 264.7 cells
[14] = mRNA (SEQ ID NO: 2) LNP, 1 μg/mL, 72 hours post transfection
[15] = cirRNA (SEQ ID NO: 1) LNPs, firefly-luciferase luminescence, Hep G2 cells
[16] = mRNA (SEQ ID NO: 2) LNP, 100 ng/mL, 72 hours post transfection, luciferase activity
[17] = cirRNA (SEQ ID NO: 1) LNPs, BALB/C mice
[18] = mRNA (SEQ ID NO: 2) LNP, 0.05 mg*kg-1 intravenous, 6 hours post injection
[19] = cirRNA (SEQ ID NO: 1) LNPs, firefly-luciferase luminescence, RAW 264.7 cells
[20] = cirRNA (SEQ ID NO: 1) LNPs, Hep G2 cells

SMILES: CCCCCCCCC(CCCCCC)C(=O)OCCCCCCCCN(CCCCCCCCCCC(=O)OCCCCCC)CCOC(=O)NCCN(C)C (stereo not shown) [Lipid 43, hexyl 10-(8-((2-hexyldecanoyl)oxy)octyl)-2-methyl-6-oxo-7-oxa-2,5,10-triazahenicosan-21-oate]
- In vitro Viability RAW [1, 13]: 97%
- In vitro Viability RAW [1, 14]: 88%
- AST in Sera (IU/L) 2 hours After 0.5 MPK Injection [2]: 135.60 IU/L
- AST in Sera (IU/L) 24 hours After 0.5 MPK Injection [2]: 88.97 IU/L
- In vitro Expression HepG2 [3, 15]: 1.75E+04
- In vitro Expression HepG2 [3, 16]: 1.33E+06
- Footpad Thickness (24 h−0 h, mm) [4]: 0.33 mm
- In vivo Expression (Whole Body) [5, 17]: 6.22E+08
- In vivo Expression (Whole Body) [5, 18]: 1.98E+08
- Zeta (mV) ([6]; LNP with cirRNA (SEQ ID NO: 1)): 1.26 mV
- Zeta (mV) ([6]; LNP with mRNA (SEQ ID NO: 2)): 12.6 mV
- In vitro Expression RAW [7, 19]: 1.10E+05
- In vitro Expression RAW [7, 16]: 9.60E+04
- ALT in Sera (IU/L) 2 hours After 0.5 MPK Injection [8]: 57.07 IU/L
- ALT in Sera (IU/L) 24 hours After 0.5 MPK Injection [8]: 41.53 IU/L
- In vitro Viability HepG2 [9, 20]: 97%
- In vitro Viability HepG2 [9, 14]: 97%
- PDI ([10]; LNP with cirRNA (SEQ ID NO: 1)): 0.04
- Size ([10]; LNP with cirRNA (SEQ ID NO: 1)): 91.2
- PDI ([10]; LNP with mRNA (SEQ ID NO: 2)): 0.09046
- Size ([10]; LNP with mRNA (SEQ ID NO: 2)): 67.1
- Encapsulation Efficiency % [11]: 95%
- Encapsulation Efficiency [11]: 88%
- MCP-I in Sera 2 hours After 0.5 MPK Injection [12]: 5561.83 pg/mL
- MCP-I in Sera 24 hours After 0.5 MPK Injection [12]: 17.57 pg/mL

SMILES: CCCCCCCCCCC(CCCCCCCC)COC(=O)CCCCCN(CCCCCCCCOC(=O)C(CCCCCC)CCCCCCCC)CCOC(=O)NCCN(C)C (stereo not shown) [Lipid 51, 2-octyldodecyl 10-(8-((2-hexyldecanoyl)oxy)octyl)-2-methyl-6-oxo-7-oxa-2,5,10-triazahexadecan-16-oate]
- In vitro Viability RAW [1, 13]: 104%
- In vitro Viability RAW [1, 14]: 80%
- AST in Sera (IU/L) 2 hours After 0.5 MPK Injection [2]: 193.77 IU/L
- AST in Sera (IU/L) 24 hours After 0.5 MPK Injection [2]: 94.73 IU/L
- In vitro Expression HepG2 [3, 15]: 9.85E+05
- In vitro Expression HepG2 [3, 16]: 4.66E+07
- Footpad Thickness (24 h−0 h, mm) [4]: 1.11 mm
- In vivo Expression (Whole Body) [5, 17]: 6.85E+08
- In vivo Expression (Whole Body) [5, 18]: 1.78E+09
- Zeta (mV) ([6]; LNP with cirRNA (SEQ ID NO: 1)): −0.71 mV
- Zeta (mV) ([6]; LNP with mRNA (SEQ ID NO: 2)): 3.197 mV
- In vitro Expression RAW [7, 19]: 8.74E+06
- In vitro Expression RAW [7, 16]: 2.63E+06
- ALT in Sera (IU/L) 2 hours After 0.5 MPK Injection [8]: 71.07 IU/L
- ALT in Sera (IU/L) 24 hours After 0.5 MPK Injection [8]: 45.50 IU/L
- In vitro Viability HepG2 [9, 20]: 88%
- In vitro Viability HepG2 [9, 14]: 83%
- PDI ([10]; LNP with cirRNA (SEQ ID NO: 1)): 0.04
- Size ([10]; LNP with cirRNA (SEQ ID NO: 1)): 89.19
- PDI ([10]; LNP with mRNA (SEQ ID NO: 2)): 0.1368
- Size ([10]; LNP with mRNA (SEQ ID NO: 2)): 79.21
- Encapsulation Efficiency % [11]: 97%
- Encapsulation Efficiency [11]: 89%
- MCP-I in Sera 2 hours After 0.5 MPK Injection [12]: 3296.20 pg/mL
- MCP-I in Sera 24 hours After 0.5 MPK Injection [12]: 562.40 pg/mL

SMILES: CCCCCCCCCCC(CCCCCCCC)COC(=O)CCCCCN(CCCCCC(=O)OCC(CCCCCCCC)CCCCCCCCCC)CCOC(=O)NCCN1CCCC1 (stereo not shown) [Lipid 168]
- In vitro Viability RAW [1, 13]: 79%
- In vitro Viability RAW [1, 14]: 75%
- AST in Sera (IU/L) 2 hours After 0.5 MPK Injection [2]: 218.63 IU/L
- AST in Sera (IU/L) 24 hours After 0.5 MPK Injection [2]: 139.13 IU/L
- In vitro Expression HepG2 [3, 15]: 1.03E+07
- In vitro Expression HepG2 [3, 16]: 1.80E+07
- Footpad Thickness (24 h−0 h, mm) [4]: 1.13 mm
- In vivo Expression (Whole Body) [5, 17]: 4.82E+08
- In vivo Expression (Whole Body) [5, 18]: 5.89E+09
- Zeta (mV) ([6]; LNP with cirRNA (SEQ ID NO: 1)): −0.573 mV
- Zeta (mV) ([6]; LNP with mRNA (SEQ ID NO: 2)): 0.8152 mV
- In vitro Expression RAW [7, 19]: 1.66E+06
- In vitro Expression RAW [7, 16]: 6.99E+05
- ALT in Sera (IU/L) 2 hours After 0.5 MPK Injection [8]: 72.80 IU/L
- ALT in Sera (IU/L) 24 hours After 0.5 MPK Injection [8]: 57.60 IU/L
- In vitro Viability HepG2 [9, 20]: 55%
- In vitro Viability HepG2 [9, 14]: 70%
- PDI ([10]; LNP with cirRNA (SEQ ID NO: 1)): 0.06
- Size ([10]; LNP with cirRNA (SEQ ID NO: 1)): 93.98
- PDI ([10]; LNP with mRNA (SEQ ID NO: 2)): 0.101
- Size ([10]; LNP with mRNA (SEQ ID NO: 2)): 68.36
- Encapsulation Efficiency % [11]: 97%
- Encapsulation Efficiency [11]: 89.10%
- MCP-I in Sera 2 hours After 0.5 MPK Injection [12]: 4607.51 pg/mL
- MCP-I in Sera 24 hours After 0.5 MPK Injection [12]: 75.08 pg/mL

SMILES: CCCCCCCCC(CCCCCC)C(=O)OCCCCCCCCN(CCCCCCCCOC(=O)C(CCCCCC)CCCCCCCC)CCCOC(=O)NCc1ncc[nH]1 (stereo not shown) [Lipid 375]
- In vitro Viability RAW [1, 13]: 90%
- In vitro Viability RAW [1, 14]: 78%
- AST in Sera (IU/L) 2 hours After 0.5 MPK Injection [2]: 292.00 IU/L
- AST in Sera (IU/L) 24 hours After 0.5 MPK Injection [2]: 251.67 IU/L
- In vitro Expression HepG2 [3, 15]: 1.10E+06
- In vitro Expression HepG2 [3, 16]: 4.36E+05
- Footpad Thickness (24 h−0 h, mm) [4]: 0.27 mm
- In vivo Expression (Whole Body) [5, 17]: 3.46E+08
- In vivo Expression (Whole Body) [5, 18]: 8.41E+08
- Zeta (mV) ([6]; LNP with cirRNA (SEQ ID NO: 1)): −1.253 mV
- Zeta (mV) ([6]; LNP with mRNA (SEQ ID NO: 2)): −4.713 mV
- In vitro Expression RAW [7, 19]: 7.06E+05
- In vitro Expression RAW [7, 16]: 2.13E+05
- ALT in Sera (IU/L) 2 hours After 0.5 MPK Injection [8]: 174.67 IU/L
- ALT in Sera (IU/L) 24 hours After 0.5 MPK Injection [8]: 120.33 IU/L
- In vitro Viability HepG2 [9, 20]: 100%
- In vitro Viability HepG2 [9, 14]: 100%
- PDI ([10]; LNP with cirRNA (SEQ ID NO: 1)): 0.2011
- Size ([10]; LNP with cirRNA (SEQ ID NO: 1)): 92.54
- PDI ([10]; LNP with mRNA (SEQ ID NO: 2)): 0.008186
- Size ([10]; LNP with mRNA (SEQ ID NO: 2)): 75.13
- Encapsulation Efficiency % [11]: 89%
- Encapsulation Efficiency [11]: 88.53%
- MCP-I in Sera 2 hours After 0.5 MPK Injection [12]: 2740.67 pg/mL
- MCP-I in Sera 24 hours After 0.5 MPK Injection [12]: 396.29 pg/mL
